Results on 15 compounds are retold here after US9682141B2, “Combination of kinase inhibitors and uses thereof” (INTELLIKINE LLC, priority 2011, dated 2017).

What all share (type): biochemical
The target of assay [1] is PI3K β (Homo sapiens (Human), UniProt P42338). As to the kind of experiment: PI 3-Kinase (human) HTRF assay, p110β/p85α. For orientation: Time-resolved FRET reads energy transfer from a long-lived donor to a nearby acceptor.
Assay [2] deals with PI3K γ (Homo sapiens (Human), UniProt P48736). In words: PI 3-Kinase (human) HTRF assay, p110γ. The settings on record: read-out: PI3K δ IC50.
Sequence of PI3K γ (P48736 whole entry, looked up): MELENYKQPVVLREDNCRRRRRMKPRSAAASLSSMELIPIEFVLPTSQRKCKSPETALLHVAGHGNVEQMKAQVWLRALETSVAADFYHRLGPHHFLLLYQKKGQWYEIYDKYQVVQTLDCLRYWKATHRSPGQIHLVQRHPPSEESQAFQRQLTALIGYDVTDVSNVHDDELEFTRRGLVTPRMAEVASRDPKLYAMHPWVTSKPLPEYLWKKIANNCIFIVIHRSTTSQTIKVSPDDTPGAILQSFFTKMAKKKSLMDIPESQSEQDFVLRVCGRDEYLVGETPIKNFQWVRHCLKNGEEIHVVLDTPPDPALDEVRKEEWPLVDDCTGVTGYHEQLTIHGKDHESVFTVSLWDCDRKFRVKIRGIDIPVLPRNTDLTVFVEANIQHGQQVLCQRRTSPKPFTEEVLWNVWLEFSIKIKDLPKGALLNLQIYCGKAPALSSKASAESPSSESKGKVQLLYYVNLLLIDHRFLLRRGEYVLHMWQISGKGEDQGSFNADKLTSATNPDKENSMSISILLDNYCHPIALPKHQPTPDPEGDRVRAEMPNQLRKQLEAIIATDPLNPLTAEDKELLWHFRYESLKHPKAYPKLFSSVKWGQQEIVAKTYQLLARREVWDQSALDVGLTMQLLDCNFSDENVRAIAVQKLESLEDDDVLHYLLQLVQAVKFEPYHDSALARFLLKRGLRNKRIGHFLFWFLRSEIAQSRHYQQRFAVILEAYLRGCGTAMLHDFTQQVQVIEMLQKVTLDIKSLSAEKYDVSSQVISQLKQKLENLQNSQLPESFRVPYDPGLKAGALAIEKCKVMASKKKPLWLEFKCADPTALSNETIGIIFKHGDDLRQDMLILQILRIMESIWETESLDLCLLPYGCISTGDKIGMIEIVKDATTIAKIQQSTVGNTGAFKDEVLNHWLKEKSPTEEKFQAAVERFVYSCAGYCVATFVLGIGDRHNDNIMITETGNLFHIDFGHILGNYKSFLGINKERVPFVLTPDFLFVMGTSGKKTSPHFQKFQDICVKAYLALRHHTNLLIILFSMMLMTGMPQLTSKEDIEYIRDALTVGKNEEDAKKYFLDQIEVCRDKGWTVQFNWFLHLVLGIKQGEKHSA
Assay [3] can be described thus: PI 3-Kinase (human) HTRF assay, p110δ/p85α. Conditions: read-out: PI3K γ IC50.
Assay [4] concerns the target PI3K α (Homo sapiens (Human), UniProt P42336). As to the kind of experiment: PI 3-Kinase (human) HTRF assay, p110α/p85α.
The target in assay [5] is mTORC (Homo sapiens (Human), UniProt P42345). As to the kind of experiment: mTOR inhibition assay (radiometric or LanthaScreen TR-FRET).
Sequence of mTORC (P42345 1360-2549): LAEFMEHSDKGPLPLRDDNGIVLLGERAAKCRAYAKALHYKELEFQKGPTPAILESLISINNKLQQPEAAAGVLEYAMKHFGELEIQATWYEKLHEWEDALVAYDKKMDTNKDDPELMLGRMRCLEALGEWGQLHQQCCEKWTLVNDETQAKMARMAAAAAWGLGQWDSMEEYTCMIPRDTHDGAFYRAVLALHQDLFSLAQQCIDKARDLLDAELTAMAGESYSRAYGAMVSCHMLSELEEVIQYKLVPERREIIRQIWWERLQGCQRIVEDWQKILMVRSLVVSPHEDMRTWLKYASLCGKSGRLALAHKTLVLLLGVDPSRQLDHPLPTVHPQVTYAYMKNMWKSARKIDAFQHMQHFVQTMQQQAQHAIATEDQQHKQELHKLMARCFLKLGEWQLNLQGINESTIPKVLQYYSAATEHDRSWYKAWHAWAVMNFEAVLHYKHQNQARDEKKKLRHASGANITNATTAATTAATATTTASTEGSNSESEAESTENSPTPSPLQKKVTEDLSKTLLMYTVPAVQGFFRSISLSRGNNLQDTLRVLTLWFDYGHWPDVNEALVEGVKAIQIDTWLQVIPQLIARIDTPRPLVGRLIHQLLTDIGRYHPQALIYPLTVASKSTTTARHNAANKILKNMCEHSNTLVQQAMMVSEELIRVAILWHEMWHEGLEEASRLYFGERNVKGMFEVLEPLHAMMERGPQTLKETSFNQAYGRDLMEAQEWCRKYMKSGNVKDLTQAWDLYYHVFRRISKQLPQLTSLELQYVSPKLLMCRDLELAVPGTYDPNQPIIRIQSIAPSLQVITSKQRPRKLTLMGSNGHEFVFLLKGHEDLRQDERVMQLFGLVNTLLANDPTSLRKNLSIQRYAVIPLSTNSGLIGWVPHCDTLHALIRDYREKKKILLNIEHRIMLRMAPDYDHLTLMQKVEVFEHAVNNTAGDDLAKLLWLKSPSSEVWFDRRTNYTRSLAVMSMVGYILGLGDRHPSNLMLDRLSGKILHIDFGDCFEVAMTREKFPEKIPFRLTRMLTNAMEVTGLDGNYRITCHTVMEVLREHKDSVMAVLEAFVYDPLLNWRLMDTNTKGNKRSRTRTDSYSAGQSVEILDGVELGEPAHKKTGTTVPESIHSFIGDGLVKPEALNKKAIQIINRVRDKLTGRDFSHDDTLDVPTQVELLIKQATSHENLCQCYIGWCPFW
Protocol: The compounds described herein can be tested against recombinant mTOR (Invitrogen) in an assay containing 50 mM HEPES, pH 7.5, 1 mM EGTA, 10 mM MgCl2, 2.5 mM, 0.01% Tween, 10 μM ATP (2.5 μCi of μ-32P-ATP), and 3 μg/mL BSA. Rat recombinant PHAS-1/4EBP1 (Calbiochem; 2 mg/mL) is used as a substrate. Reactions are terminated by spotting onto nitrocellulose, which is washed with 1M NaCl/1% phosphoric acid (approximately 6 times, 5-10 minutes each). Sheets are dried and the transferred radioactivity quantitated by phosphorimaging.
For instance, one can use Invitrogen's LanthaScreen™ Kinase assay to test the inhibitors of mTOR disclosed herein. This assay is a time resolved FRET platform that measures the phosphorylation of GFP labeled 4EBP1 by mTOR kinase. The kinase reaction is performed in a white 384 well microtitre plate. The total reaction volume is 20 ul per well and the reaction buffer composition is 50 mM HEPES pH7.5, 0.01% Polysorbate 20, 1 mM EGTA, 10 mM MnCl2, and 2 mM DTT. In the first step, each well receives 2 ul of test compound in 20% dimethylsulphoxide resulting in a 2% DMSO final concentration. Next, 8 ul of mTOR diluted in reaction buffer is added per well for a 60 ng/ml final concentration. To start the reaction, 10 ul of an ATP/GFP-4EBP1 mixture (diluted in reaction buffer) is added per well for a final concentration of 10 μM ATP and 0.5 μM GFP-4EBP1. The plate is sealed and incubated for 1 hour at room temperature. […] The plate is sealed, incubated for 1 hour at room temperature, and then read on a plate reader set up for LanthaScreen™ TR-FRET. Data is analyzed and IC50s are generated using GraphPad Prism 5.

Sequence of PI3K α (P42336 whole entry): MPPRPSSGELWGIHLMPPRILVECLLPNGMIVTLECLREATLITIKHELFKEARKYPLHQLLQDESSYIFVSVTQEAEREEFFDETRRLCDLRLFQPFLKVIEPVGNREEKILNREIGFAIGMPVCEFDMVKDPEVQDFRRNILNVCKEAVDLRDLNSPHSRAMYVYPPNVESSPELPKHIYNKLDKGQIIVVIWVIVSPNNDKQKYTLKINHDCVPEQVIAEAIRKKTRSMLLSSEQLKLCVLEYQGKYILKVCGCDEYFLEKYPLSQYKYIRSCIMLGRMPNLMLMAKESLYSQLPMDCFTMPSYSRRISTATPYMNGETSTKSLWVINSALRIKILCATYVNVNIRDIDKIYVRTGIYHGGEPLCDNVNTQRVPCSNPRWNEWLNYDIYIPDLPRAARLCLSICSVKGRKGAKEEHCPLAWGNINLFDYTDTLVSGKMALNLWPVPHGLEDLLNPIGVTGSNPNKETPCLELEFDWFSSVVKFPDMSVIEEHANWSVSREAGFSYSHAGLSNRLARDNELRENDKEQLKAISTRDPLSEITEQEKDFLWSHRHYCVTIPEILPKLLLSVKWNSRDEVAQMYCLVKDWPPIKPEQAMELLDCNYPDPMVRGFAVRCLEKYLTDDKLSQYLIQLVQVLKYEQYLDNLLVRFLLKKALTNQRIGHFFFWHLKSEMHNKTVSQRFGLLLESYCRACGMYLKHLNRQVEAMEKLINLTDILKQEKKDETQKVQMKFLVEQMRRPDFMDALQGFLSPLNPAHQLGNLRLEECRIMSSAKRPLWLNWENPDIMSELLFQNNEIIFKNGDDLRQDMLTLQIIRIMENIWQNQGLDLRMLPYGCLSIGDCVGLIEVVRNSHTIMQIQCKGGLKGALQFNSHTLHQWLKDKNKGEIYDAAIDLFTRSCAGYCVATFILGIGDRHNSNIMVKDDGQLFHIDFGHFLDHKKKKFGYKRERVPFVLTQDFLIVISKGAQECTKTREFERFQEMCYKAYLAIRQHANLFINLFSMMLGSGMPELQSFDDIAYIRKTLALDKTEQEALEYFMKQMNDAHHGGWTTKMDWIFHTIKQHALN
Sequence of PI3K α (P27986 whole entry partner): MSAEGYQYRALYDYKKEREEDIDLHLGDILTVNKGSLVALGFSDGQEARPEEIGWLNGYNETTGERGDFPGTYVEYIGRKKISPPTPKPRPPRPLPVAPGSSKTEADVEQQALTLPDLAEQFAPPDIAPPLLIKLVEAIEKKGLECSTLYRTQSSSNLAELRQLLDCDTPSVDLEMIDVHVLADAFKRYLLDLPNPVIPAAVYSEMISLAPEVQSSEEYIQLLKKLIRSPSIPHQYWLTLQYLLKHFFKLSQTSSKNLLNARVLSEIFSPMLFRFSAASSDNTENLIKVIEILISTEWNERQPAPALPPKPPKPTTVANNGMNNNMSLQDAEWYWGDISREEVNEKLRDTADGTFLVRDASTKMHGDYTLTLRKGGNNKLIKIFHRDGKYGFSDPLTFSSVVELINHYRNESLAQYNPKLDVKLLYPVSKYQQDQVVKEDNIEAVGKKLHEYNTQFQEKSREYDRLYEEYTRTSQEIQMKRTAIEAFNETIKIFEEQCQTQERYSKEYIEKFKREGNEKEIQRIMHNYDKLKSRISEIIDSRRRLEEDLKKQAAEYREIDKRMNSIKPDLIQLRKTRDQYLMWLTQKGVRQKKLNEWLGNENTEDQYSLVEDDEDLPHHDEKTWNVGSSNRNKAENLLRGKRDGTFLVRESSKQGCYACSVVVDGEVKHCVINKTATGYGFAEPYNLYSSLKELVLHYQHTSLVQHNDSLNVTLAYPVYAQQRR

For orientation: IC50 means the concentration that inhibits the measured activity by half. With `Nc1nc2cc(-c3ccc4ncc(N5CC(N6CC[C@H](O)C6)C5)nc4c3)ccc2o1`, the IC50 in assay [1] was less than 1 µM; in assay [2] it was less than 1 µM; in assay [3], less than 10 µM; in assay [4], less than 0.1 µM; in assay [5], greater than 10 µM.
Take `Nc1nc2cc(-c3ccc4ncc(N5CCNC(C(F)(F)F)C5)nc4c3)ccc2o1` (stereo not drawn): the half-maximal inhibitory concentration (IC50) is less than 1 µM in assay [1]; less than 1 µM in assay [2]; less than 10 µM in assay [3]; less than 0.1 µM in assay [4]; less than 1 µM in assay [5].
Regarding `Nc1nc2cc(-c3nc(N4CCOCC4)c4cnn(C5CCNCC5)c4n3)ccc2o1`, the 50% inhibitory concentration (IC50) in assay [1] is less than 0.1 µM; in assay [2], less than 1 µM; in assay [3], less than 10 µM; in assay [4] it was less than 1 µM; in assay [5], less than 1 µM.
Turning to `CN1CCN(C2CN(c3cnc4ccc(-c5ccc6oc(N)nc6c5)cc4n3)C2)CC1`, the IC50 in assay [1] is less than 10 µM; in assay [2] it was less than 10 µM; in assay [3] it was less than 10 µM; in assay [4] it was less than 0.1 µM; in assay [5], less than 10 µM.
Take `CS(=O)(=O)N1CCN(C2CN(c3cnc4ccc(-c5ccc6oc(N)nc6c5)cc4n3)C2)CC1`: the half-inhibitory concentration (IC50) was less than 10 µM in assay [1]; less than 10 µM in assay [2]; less than 10 µM in assay [3]; less than 0.1 µM in assay [4]; greater than 10 µM in assay [5].
`Nc1nc2cc(-c3ccc4ncc(N5CC(N6CCN(CCO)CC6)C5)nc4c3)ccc2o1`: the IC50 in assay [1] was less than 10 µM; in assay [2], less than 10 µM; in assay [3], less than 1 µM; in assay [4] it was less than 0.1 µM; in assay [5] it was greater than 10 µM.
With `Nc1nc2cc(-c3ccc4ncc(N5CC(N6CCOCC6)C5)nc4c3)c(F)cc2o1`, the IC50 in assay [1] was less than 10 µM; in assay [2], less than 10 µM; in assay [3] it was less than 10 µM; in assay [4], less than 0.1 µM; in assay [5], greater than 10 µM.
For `Nc1nc2cc(-c3ccc4ncc(N5CC(N6CCN(C7CC7)CC6)C5)nc4c3)ccc2o1`, the IC50 was less than 10 µM in assay [1]; less than 10 µM in assay [2]; less than 10 µM in assay [3]; less than 0.1 µM in assay [4]; less than 10 µM in assay [5].
Turning to `Nc1nc2cc(-c3ccc4ncc(N5CC(N6CCNCC6)C5)nc4c3)ccc2o1`, the concentration for half-maximal inhibition (IC50) in assay [1] was less than 1 µM; in assay [2], less than 1 µM; in assay [3], less than 1 µM; in assay [4], less than 0.1 µM; in assay [5], greater than 10 µM.
As for `CCN(CC)C1CN(c2cnc3ccc(-c4ccc5oc(N)nc5c4)cc3n2)C1`, the half-maximal inhibitory concentration (IC50) is less than 10 µM in assay [1]; less than 1 µM in assay [2]; less than 10 µM in assay [3]; less than 0.1 µM in assay [4]; greater than 10 µM in assay [5].
In the case of `Cc1cc2oc(N)nc2cc1-c1ccc2ncc(N3CC(N4CCOCC4)C3)nc2c1`, the concentration for half-maximal inhibition (IC50) in assay [1] is greater than 10 µM; in assay [2] it was greater than 10 µM; in assay [3] it was greater than 10 µM; in assay [4] it was less than 10 µM; in assay [5], greater than 10 µM.
For the compound `Nc1nc2cc(-c3ccc4ncc(N5CCC(n6ccnc6)CC5)nc4c3)ccc2o1`, the concentration for half-maximal inhibition (IC50) is less than 1 µM in assay [1]; less than 1 µM in assay [2]; less than 1 µM in assay [3]; less than 0.1 µM in assay [4]; less than 10 µM in assay [5].
Regarding `Nc1nc2cc(-c3ccc4ncc(N5CC(N6CC[C@@H](O)C6)C5)nc4c3)ccc2o1`, the 50% inhibitory concentration (IC50) in assay [1] is less than 10 µM; in assay [2] it was less than 10 µM; in assay [3] it was less than 10 µM; in assay [4] it was less than 0.1 µM; in assay [5] it was less than 1 µM.
`CN1CCN(c2cnc3ccc(-c4ccc5oc(N)nc5c4)cc3n2)CC1=O`: the IC50 was less than 1 µM in assay [1]; less than 1 µM in assay [2]; less than 10 µM in assay [3]; less than 0.1 µM in assay [4]; less than 10 µM in assay [5].
For the compound `Nc1nc2cc(-c3ccc4ncc(N5CCN(C(=O)[C@@H](N)CO)CC5)nc4c3)ccc2o1`, the IC50 in assay [1] was less than 1 µM; in assay [2] it was less than 10 µM; in assay [3] it was less than 10 µM; in assay [4] it was less than 0.1 µM; in assay [5] it was less than 10 µM.
